In patent publication US5827837A, “Polyanion anti-inflammatory agents” (priority 1996, dated 1998):
Read-outs that look alike come from different tables or passages of the source.

Tests used:
[1] = biological target: T1, L-selectin-lg fusion protein (Homo sapiens, UniProt P14151); assay: Competition ELISA: binding of L-selectin-Ig to immobilized BSA-sLe^x
T1 construct: Each selectin-lg contains the lectin domain, epidermal growth factor domain, and one (L-selectin-lg), two (P-selectin-lg) or six (E-selectin-lg) complement regulatory repeats; made in house
From the text: Selectin-lg fusion proteins are recombinant chimeric molecules containing extracellular regions of selectins coupled to the hinge, CH2, and CH3 regions of human IgG1 (Aruffo, A., et al., Cell, 67:35, 1991; Walz, G., et al., Science, 250:1132, 1990). Each selectin-lg contains the lectin domain, epidermal growth factor domain, and one (L-selectin-lg), two (P-selectin-lg) or six (E-selectin-lg) complement regulatory repeats of the parent molecules. DNAs encoding selectin-Ig inserted in pCDM7 allowed transient expression of recombinant proteins in COS cells as previously described (Seed, B., et al., Proc. Natl. Acad. Sci., U.S.A., 84:3365, 1987; Aruffo, A., Current Protocols In Molecular Biology, eds. Ausubel, F. M., et al, 16:13.1, Greene Publishing Associates and Wiley-lnterscience, New York, N.Y., 1992). These DNAs were also ligated into pNUT (Palmiter, R. D., et al, Cell, 50:435, 1987) for amplification and stable expression in BHK cells. The fusion proteins were affinity purified from culture media using protein A (Pierce Chemical Company, Rockford, Ill.) or protein G (Pharmacia, Piscataway, N.J.) Sepharose, as previously described (Aruffo, A., et al., Cell, 67:35, 1991; Aruffo, A., Current Protocols In Molecular Biology, eds. Ausubel, F. M., et al, supra, 1992). Competition binding ELISAs using P- and E-selectin-lg were performed essentially as described (Nelson, R. M., et al., J. Clin. […] Selectin concentrations were from 10 to 30 nM. […] To increase L-selectin binding, an assay similar to that previously described was used (Foxall, C., et al., J. Cell Biol., 117:895, 1992), in which the L-selectin-lg (10-20 nM) was allowed to form aggregates with HRP-conjugated anti-lg antibody for 30 minutes prior to addition of inositols and incubation on the BSA-sLe^x -coated plate. IC50 values were calculated by fitting binding data to the equation: fraction of maximal binding=IC50 […] using nonlinear least squares analysis software (Origin, Microcal Inc, Northampton, Mass.). InsP6 (dodecasodium salt), InsS6 (hexapotassium salt), myo-inositol 1 monophosphate (cyclohexylammonium salt), and myo-inositol were from Sigma Chemical Company (St. Louis, Mo.). Stock solutions were prepared daily in 0.9% NaCl and sterilized by 0.22 μm filtration. InsP6 solutions were adjusted at pH 7.4 with HCl.
L-, P-, or E-selectin-lg fusion proteins were incubated for 2-3 hours on microtiter plates coated with the neoglycoprotein BSA-sLe^x, the plates washed, and bound selectin-lg was detected using a peroxidase-conjugated antibody directed against the lg portion and a chromogenic substrate. To determine blocking activity, solution-phase lnsP6 (.circle-solid.), InsS6 (.largecircle.), or inositol (.box-solid.) at the indicated concentrations were added to the solutions containing selectin-Ig fusion proteins prior to transfer to microtiter plates (competition ELISA).

[2] = biological target: T1, L-selectin-lg fusion protein; assay: LS 180 colon cancer cell adhesion to immobilized L-selectin-Ig; format: cell-based
Description: Cell adhesion assays on immobilized selectin-lg were performed essentially as described (Nelson, R. M., et al., J. Clin. Invest., 91:1157, 1993; Nelson, R. M., et al., Symposia on Quant. Biol., 57:271, 1992). Briefly, Nunclon Terasaki Microwell plates were coated overnight with 5 μl/well of a 5 μg/ml solution of protein A (Chemicon, Temecula, Calif.) in 50 mM carbonate buffer, pH 9.5. Protein-A-coated plates were washed with Dulbecco's phosphate buffered saline (PBS), incubated for 1 hour with L-, P-, or E-selectin-lg fusion proteins in PBS (5-20 μg/ml), washed again, and blocked with PBS containing 1% human serum albumin (HSA). To measure inhibition of cell adhesion, 5 μl/well of lnsP6 in PBS was added to the selectin-lg coated plates and incubated for 30 min at […]. LS 180 cells were harvested by brief trypsinization and resuspended at 1.5×10^6 cells/ml in PBS containing 1% HSA; five μl/well of suspension was added, and incubated for 30 min at 4° C. After washing to remove unbound cells, adherent cells were fixed with glutaraldehyde (2.5% in PBS) and counted. Symbols and error bars represent mean number of adherent cells/mm^2 ±s.e.m., counted in quadruplicate wells in a single experiment representative of three. No LS 180 cell adhesion was detected on plates coated with protein A alone, or on plates coated with protein A-captured CD8-lg fusion protein.
LS 180 cells (ATCC, Rockville, Md.) were added to cell culture wells containing protein A-captured selectin-lg fusion proteins and incubated for 30 min at 4° C. to allow adhesion. The plates were washed to remove unbound cells and adherent cells were counted microscopically. To determine adhesion blocking activity, InsP6 at the indicated concentrations was added to selectin-lg-coated wells 30 min prior to addition of LS 180 cells.

selectin = assay: Selectin-sulfatide interactions; format: binding

| IC50 ([1]; BSA-sLe^x competition ELISA, read-out: IC50, L-selectin binding) [µM] | inhibition at 4000 µM ([2]; LS180, 4 mM, single experiment) [%] | blocking of L-selectin-Ig binding ([1]; BSA-sLe^x competition ELISA) | Compound | IC50 [1] [µM] | blocking of L-selectin-Ig at reduced Ca^2+ ([1]; Ca^2+ reduced to 0.15 mM) | LS 180 adhesion to L-selectin-Ig [2] | blocking of selectin-sulfatide interactions (selectin) |
| --- | --- | --- | --- | --- | --- | --- | --- |
|  |  |  | O=P(O)(O)O[C@H]1[C@H](OP(=O)(O)O)[C@@H](OP(=O)(O)O)[C@H](OP(=O)(O)O)[C@@H](OP(=O)(O)O)[C@H]1OP(=O)(O)O [InsP6, myo-inositol hexakisphosphate] | 3.1 ± 0.5 | not enhanced | blocked the adhesion of LS 180 cells | blocked selectin-sulfatide interactions at concentrations similar to those that were effective in blocking the binding to BSA-sLe^x |
| 210 ± 110 | ~45 |  | O=S(=O)(O)O[C@H]1[C@H](OS(=O)(=O)O)[C@@H](OS(=O)(=O)O)[C@H](OS(=O)(=O)O)[C@@H](OS(=O)(=O)O)[C@H]1OS(=O)(=O)O [InsS6, myo-inositol hexakissulfate] |  |  |  | blocked selectin-sulfatide interactions at concentrations similar to those that were effective in blocking the binding to BSA-sLe^x |
|  |  | not myo-isositol, blocked binding | O[C@H]1[C@H](O)[C@@H](O)[C@H](O)[C@@H](O)[C@H]1O [myo-inositol, reference compound] |  |  | inactive at concentrations up to 5 mM | not inositol) blocked selectin-sulfatide interactions |
